Data reported in US5892041A, “Fused indolecarboxamides: dopamine receptor subtype specific ligands” (Neurogen Corporation, priority 1996, dated 1999).
Where a name gives a salt, the structure may show the parent alone.

What was measured:
[1] = target: T1, D3 receptors (Chlorocebus aethiops, UniProt P52703); experiment: D3 receptor binding ([3H]YM 09151-2 displacement, COS cell pellets with recombinant receptor); design: species or system African Green monkey; conditions: 0.5 nM 3H-YM 09151-2; recombinant receptor in COS cells; nonspecific with 1 mM spiperone; text also says rat striatal homogenates
T1 construct: expressed in transfected cells; host or cells: COS cells
T1 sequence (P52703 whole entry): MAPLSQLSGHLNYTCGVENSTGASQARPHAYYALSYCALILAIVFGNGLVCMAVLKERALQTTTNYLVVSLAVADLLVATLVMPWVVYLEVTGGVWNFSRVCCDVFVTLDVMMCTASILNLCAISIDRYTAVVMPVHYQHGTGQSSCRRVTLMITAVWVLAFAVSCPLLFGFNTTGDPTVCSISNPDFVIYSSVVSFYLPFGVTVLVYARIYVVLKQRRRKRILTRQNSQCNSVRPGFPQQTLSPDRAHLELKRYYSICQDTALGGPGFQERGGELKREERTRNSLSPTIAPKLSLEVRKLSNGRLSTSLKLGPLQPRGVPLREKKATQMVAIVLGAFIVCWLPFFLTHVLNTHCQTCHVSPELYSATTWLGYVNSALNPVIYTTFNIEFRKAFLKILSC
Experimental: (§1) Pellets of COS cells containing recombinantly produced D2 or D3 receptors from African Green monkey were used for the assays. The sample is homogenized in 100 volumes (w/vol) of 0.05M Tris HCl buffer at 4° C. and pH 7.4. The sample is then centrifuged at 30,000×g and resuspended and rehomogenized. The sample is then centrifuged as described and the final tissue sample is frozen until use. The tissue is resuspended 1:20 (wt/vol) in 0.05M Tris HCl buffer containing 100 mM NaCl.
(§2) Incubations are carried out at 48° C. and contain 0.4 ml of tissue sample, 0.5 nM ^3 H-YM 09151-2 and the compound of interest in a total incubation of 1.0 ml. Nonspecific binding is defined as that binding found in the presence of […] spiperone; without further additions, nonspecific binding is less than 20% of total binding. The binding characteristics of representative compounds of the invention for D2 and D3 receptor subtypes are shown in Table 2 for rat striatal homogenates.

[2] = target: T2, D2 receptors (Chlorocebus aethiops, UniProt P52702); experiment: D2 receptor binding ([3H]YM 09151-2 displacement, COS cell pellets with recombinant receptor); design: species or system African Green monkey; conditions: 0.5 nM 3H-YM 09151-2; recombinant receptor in COS cells; nonspecific with 1 mM spiperone; text also says rat striatal homogenates
T2 construct: 3H-YM 09151-2 displacement
T2 sequence (P52702 whole entry): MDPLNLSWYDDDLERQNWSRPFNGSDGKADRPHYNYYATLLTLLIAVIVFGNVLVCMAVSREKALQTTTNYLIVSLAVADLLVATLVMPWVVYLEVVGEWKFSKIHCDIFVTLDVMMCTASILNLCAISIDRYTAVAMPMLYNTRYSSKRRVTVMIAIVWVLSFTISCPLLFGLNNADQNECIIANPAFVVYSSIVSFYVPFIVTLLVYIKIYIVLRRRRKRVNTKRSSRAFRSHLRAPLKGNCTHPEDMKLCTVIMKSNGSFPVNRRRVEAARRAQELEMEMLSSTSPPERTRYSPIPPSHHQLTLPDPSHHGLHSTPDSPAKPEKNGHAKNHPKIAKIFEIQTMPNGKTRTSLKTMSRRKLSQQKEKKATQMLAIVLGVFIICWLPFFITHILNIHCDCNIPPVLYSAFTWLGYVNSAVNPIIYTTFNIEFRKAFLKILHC
Experimental: as §1, §2

Ki [1] [nM] | Ki [2] [nM] | Compound
2 | 540 | Cn1c2ccccc2c2cc(C(=O)NCCCCN3CCN(c4cccc(Cl)c4Cl)CC3)ccc21 [Compound 3, N-(1-{4-[4-(2,3-dichlorophenyl)piperazine-1-yl]}butyl)-9-methylcarbazole-3-carboxamide hydrochloride]
1 | 750 | O=C(NCCCCN1CCN(c2cccc(Cl)c2Cl)CC1)c1ccc2c(c1)[nH]c1ccccc12 [Compound 4, N-(1-{4-[4-(2,3-dichlorophenyl)piperazine-1-yl]}butyl)-9H-carbazole-2-carboxamide hydrochloride]
0.5 | 250 | O=C(NCCCCN1CCN(c2cccc(Cl)c2Cl)CC1)c1ccc2[nH]c3c(c2c1)CCCC3 [Compound 1, N-(1-{4-[4-(2,3-dichlorophenyl)piperazine-1-yl]}butyl)-1,2,3 4-tetrahydrocarbazole-6-carboxamide hydrochloride]
